# Test results taken from patent US20150197492A1, “NOVEL INDENO[1,2-c]QUINOLIN-11-ONE DERIVATIVES, PREPARATION METHOD AND APPLICATION THEREOF” (National Defense Medical Center, priority 2014, published 2015).
# Tests used:
# 60 cancer cell lines = experiment: NCI five-dose level screening test, second stage (GI50, TGI, LC50); assay type: cell-based; conditions: for Subpanel MID^b (average sensitivity of all cell line of a particular subpanel) / MID^a (average sensitivity of all cell line): GI50; for MID^a (average sensitivity of all cell line): all cell lines
# Text: From the results, compounds SJ-3 (NSC 772864) and SJ-10 (NSC 772862) were selected by NCI for a five-dose level screening test and the mean growth percentage of the 60 cancer cell lines for the two compounds are 62.4 and −14.37, respectively. […] A summary of the NCI data provides information on the inhibition effect of various compound in different cancer cell lines (FIGS. 3 to 16 and Tables 3 to 8). […] Table 9 indicates the GI50, TGI and LC50 of the NCI data of TC-XCl, SJ-3 and SJ-10 NCI.
# Solubility in DMSO = assay type: physicochemical; conditions: order SJ-2<SJ-24<SJ-3<SJ-11
# Text: The solubility of the four compounds in DMSO is poor, SJ-2<SJ-24<SJ-3<SJ-11, and therefore it is estimated and this is the reason why the three compounds which have previously proven to be effective against PC-3 cell line by SRB assays are ineffective in this experiment.
# [1] = Non-Small Cell Lung Cancer subpanel
SMILES,Selectivity ratio (MID^a:MID^b) (60 cancer cell lines; Breast Cancer subpanel),Subpanel MID^b (average sensitivity of all cell line of a particular subpanel) (60 cancer cell lines; Breast Cancer subpanel) [µM],Selectivity ratio (MID^a:MID^b) (60 cancer cell lines; CNS Cancer subpanel),Subpanel MID^b (average sensitivity of all cell line of a particular subpanel) (60 cancer cell lines; CNS Cancer subpanel) [µM],Selectivity ratio (MID^a:MID^b) (60 cancer cell lines; Colon Cancer subpanel),Subpanel MID^b (average sensitivity of all cell line of a particular subpanel) (60 cancer cell lines; Colon Cancer subpanel) [µM],Selectivity ratio (MID^a:MID^b) (60 cancer cell lines; Leukemia subpanel),Subpanel MID^b (average sensitivity of all cell line of a particular subpanel) (60 cancer cell lines; Leukemia subpanel) [µM],Selectivity ratio (MID^a:MID^b) (60 cancer cell lines; Melanoma subpanel),Subpanel MID^b (average sensitivity of all cell line of a particular subpanel) (60 cancer cell lines; Melanoma subpanel) [µM],Selectivity ratio (MID^a:MID^b) (60 cancer cell lines; [1]),Subpanel MID^b (average sensitivity of all cell line of a particular subpanel) (60 cancer cell lines; [1]) [µM],Selectivity ratio (MID^a:MID^b) (60 cancer cell lines; Ovarian Cancer subpanel),Subpanel MID^b (average sensitivity of all cell line of a particular subpanel) (60 cancer cell lines; Ovarian Cancer subpanel) [µM],Selectivity ratio (MID^a:MID^b) (60 cancer cell lines; Prostate Cancer subpanel),Subpanel MID^b (average sensitivity of all cell line of a particular subpanel) (60 cancer cell lines; Prostate Cancer subpanel) [µM],Selectivity ratio (MID^a:MID^b) (60 cancer cell lines; Renal Cancer subpanel),Subpanel MID^b (average sensitivity of all cell line of a particular subpanel) (60 cancer cell lines; Renal Cancer subpanel) [µM],MID^a (average sensitivity of all cell line) (60 cancer cell lines) [µM],solubility in DMSO (Solubility in DMSO)
"O=C1c2cc(Cl)ccc2-c2c(N3CCNCC3)nc3ccccc3c21 [SJ-10, 9-Chloro-6-(piperazin-1-yl)-11H-indeno[1,2-c]quinolin-11-one]",1.541,6.813,1.304,8.053,1.075,9.763,0.954,11.000,0.528,19.894,1.621,6.477,0.772,13.591,1.959,5.360,1.648,6.370,10.498,–
"CCN(CC)CCNc1nc2ccccc2c2c1-c1ccc(Cl)cc1C2=O [SJ-3, 6-(2-(Diethylamino)ethylamino)-9-chloro-11H-indeno[1,2-c]quinolin-11-one]",1.159,12.345,0.962,14.875,0.778,18.400,1.475,9.696,0.914,15.654,1.210,11.819,0.820,17.448,0.914,15.650,1.124,12.733,14.306,poor
"CN(C)c1nc2ccccc2c2c1-c1ccc(Cl)cc1C2=O [SJ-2, 9-Chloro-6-(dimethylamino)-11H-indeno[1,2-c]quinolin-11-one]",–,–,–,–,–,–,–,–,–,–,–,–,–,–,–,–,–,–,–,poor
